According to patent US6030942A, “Peptides peptide analogs peptidomimetics and other small molecules useful for inhibiting the activity of ribonucleotide reductase” (The Trustees of the University of Pennsylvania, priority 1998, dated 2000):
Several values for one entry are separate records, joined by “and”; a condition that tells them apart may be missing. Equal entries are not always repeated. Entries after “also recorded” stand apart in the source; their conditions may differ. Where two headings read alike, the source gives them in different places. Ends that are not written are not given here.

Experiments:
[1] = biological target: T1, mammalian ribonucleotide reductase (Bos taurus, UniProt Q32LP1); assay: Peptide inhibition of mammalian ribonucleotide reductase activity; type: biochemical; settings: for % RI (relative inhibitory potency, (IC50 AcFTLDADF)/(IC50 peptide analog)): mean and average deviation of 2-3 determinations, others single
T1 sequence (Q32LP1 1-791): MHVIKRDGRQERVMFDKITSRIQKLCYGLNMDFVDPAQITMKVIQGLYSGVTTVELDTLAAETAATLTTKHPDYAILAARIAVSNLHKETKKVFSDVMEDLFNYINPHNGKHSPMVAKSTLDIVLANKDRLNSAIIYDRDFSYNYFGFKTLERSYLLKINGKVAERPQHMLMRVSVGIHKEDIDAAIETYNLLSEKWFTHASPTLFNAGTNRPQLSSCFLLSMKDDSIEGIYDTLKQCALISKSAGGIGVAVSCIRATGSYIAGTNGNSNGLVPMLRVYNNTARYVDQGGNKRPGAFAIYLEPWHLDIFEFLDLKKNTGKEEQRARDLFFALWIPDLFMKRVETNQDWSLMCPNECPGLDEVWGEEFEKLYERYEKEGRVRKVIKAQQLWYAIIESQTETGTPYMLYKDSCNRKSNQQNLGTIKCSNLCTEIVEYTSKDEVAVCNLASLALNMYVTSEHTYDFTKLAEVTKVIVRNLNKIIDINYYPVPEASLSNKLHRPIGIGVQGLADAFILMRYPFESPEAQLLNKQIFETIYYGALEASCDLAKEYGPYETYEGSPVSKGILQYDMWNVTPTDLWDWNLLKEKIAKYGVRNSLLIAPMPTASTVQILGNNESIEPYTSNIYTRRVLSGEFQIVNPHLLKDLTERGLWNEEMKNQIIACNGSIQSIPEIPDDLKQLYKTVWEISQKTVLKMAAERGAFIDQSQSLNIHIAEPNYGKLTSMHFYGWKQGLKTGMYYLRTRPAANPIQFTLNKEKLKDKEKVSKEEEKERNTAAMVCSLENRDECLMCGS
Excerpt: All three methods yielded acceptable results, with the following limitations. Method 1 is useful for the assay of CDP to dCDP and ADP to dADP conversions, but is not useful for the assay of GDP reduction. It is also sensitive to large changes in the nucleotide composition of the assay medium. […] Method 2 is the easiest to perform on purified enzymes, and can be used with all four NDPs as substrates, but is difficult to use with crude enzyme, largely because contaminating phosphatase activities can skew results. Method 3 is usable with all four NDPs, but is also somewhat sensitive to large changes in the nucleotide composition of the assay medium and requires column separation at 4° C.

RR [2] = biological target: T2, RR (Mus musculus, UniProt P07742); assay: Inhibition of RR by Compound 23; type: biochemical
T2 sequence (P07742 1-792): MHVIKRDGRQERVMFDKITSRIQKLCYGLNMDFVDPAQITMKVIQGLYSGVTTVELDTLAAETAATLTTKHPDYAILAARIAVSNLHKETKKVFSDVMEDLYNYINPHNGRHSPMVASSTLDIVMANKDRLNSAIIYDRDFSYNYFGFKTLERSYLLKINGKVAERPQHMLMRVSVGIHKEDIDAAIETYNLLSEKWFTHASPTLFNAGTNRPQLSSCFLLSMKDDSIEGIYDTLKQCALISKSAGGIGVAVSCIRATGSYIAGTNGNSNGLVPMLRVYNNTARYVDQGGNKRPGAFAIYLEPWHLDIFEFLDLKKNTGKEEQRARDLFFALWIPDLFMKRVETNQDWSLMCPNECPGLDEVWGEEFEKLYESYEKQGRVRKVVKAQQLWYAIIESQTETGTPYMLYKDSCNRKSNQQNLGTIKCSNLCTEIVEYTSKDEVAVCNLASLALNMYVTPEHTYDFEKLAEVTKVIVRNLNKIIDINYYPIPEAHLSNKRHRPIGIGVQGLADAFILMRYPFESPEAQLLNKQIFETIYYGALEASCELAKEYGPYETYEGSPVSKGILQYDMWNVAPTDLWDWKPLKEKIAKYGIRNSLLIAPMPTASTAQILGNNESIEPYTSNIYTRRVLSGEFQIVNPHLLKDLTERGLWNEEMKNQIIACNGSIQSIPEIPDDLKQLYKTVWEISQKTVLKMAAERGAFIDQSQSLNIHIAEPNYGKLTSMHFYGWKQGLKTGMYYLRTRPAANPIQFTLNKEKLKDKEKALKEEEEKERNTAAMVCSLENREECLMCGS
Excerpt: (§1) Standard assays of RR activity used in the studies presented herein involve the conversion of [^3 H]-ribonucleoside diphosphate (NDP) to [^3 H]-deoxyribonucleoside diphosphate (dNDP), using dithiothreitol as the external reductant. Three methods were examined: Method 1 (Steeper et al., 1970, Anal. Biochem. 34:123-130), involving the conversion of diphosphates to nucleosides by enzymatic digestion, followed by the separation of deoxynucleoside from nucleoside on Dowex-1-borate columns; Method 2 (Moore et al., 1974, Biochemistry 13:2904-2907), involving the direct separation of dNDP from NDP on aminophenylboronate columns; Method 3 (Sato et al., 1983, Anal. Biochem. 135:431-435) involving the conversion of diphosphates to nucleosides by enzymatic digestion, followed by the separation of deoxynucleoside from nucleoside on polyethyleneimine-cellulose columns.
All three methods yielded acceptable results, with the following limitations. Method 1 is useful for the assay of CDP to dCDP and ADP to dADP conversions, but is not useful for the assay of GDP reduction. It is also sensitive to large changes in the nucleotide composition of the assay medium. Thus, it is quite useful for standard assays (purifications, tests of peptide inhibition), but difficult to apply when concentrations and substrate are widely varied. Method 2 is the easiest to perform on purified enzymes, and can be used with all four NDPs as substrates, but is difficult to use with crude enzyme, largely because contaminating phosphatase activities can skew results. Method 3 is usable with all four NDPs, but is also somewhat sensitive to large changes in the nucleotide composition of the assay medium and requires column separation at 4° C.

[3] = biological target: T3, mouse Y177F-R2 with recombinant mouse R1 (Mus musculus, UniProt P07742+P11157, Y177F); assay: Inhibition of Y177F-R2-dependent RR activity; settings: dATP in presence of relatively high ATP
T3 sequence (P07742 1-792): T2 sequence (P07742 1-792)
T3 sequence (P11157 1-390 Y177F): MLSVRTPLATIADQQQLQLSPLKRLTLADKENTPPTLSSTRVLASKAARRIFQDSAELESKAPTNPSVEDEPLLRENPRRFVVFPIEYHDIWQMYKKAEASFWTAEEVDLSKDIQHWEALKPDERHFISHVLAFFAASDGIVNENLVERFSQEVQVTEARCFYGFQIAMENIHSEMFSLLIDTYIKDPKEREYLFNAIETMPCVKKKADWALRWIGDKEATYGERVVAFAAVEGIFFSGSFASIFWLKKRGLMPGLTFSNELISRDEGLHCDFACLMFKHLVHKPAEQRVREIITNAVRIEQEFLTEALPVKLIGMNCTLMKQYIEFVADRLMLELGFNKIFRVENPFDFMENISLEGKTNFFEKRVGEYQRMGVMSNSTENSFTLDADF

E. coli RR = E. coli RR (Escherichia coli, UniProt P00452); settings: cited from earlier work
Sequence of E. coli RR (P00452 whole entry): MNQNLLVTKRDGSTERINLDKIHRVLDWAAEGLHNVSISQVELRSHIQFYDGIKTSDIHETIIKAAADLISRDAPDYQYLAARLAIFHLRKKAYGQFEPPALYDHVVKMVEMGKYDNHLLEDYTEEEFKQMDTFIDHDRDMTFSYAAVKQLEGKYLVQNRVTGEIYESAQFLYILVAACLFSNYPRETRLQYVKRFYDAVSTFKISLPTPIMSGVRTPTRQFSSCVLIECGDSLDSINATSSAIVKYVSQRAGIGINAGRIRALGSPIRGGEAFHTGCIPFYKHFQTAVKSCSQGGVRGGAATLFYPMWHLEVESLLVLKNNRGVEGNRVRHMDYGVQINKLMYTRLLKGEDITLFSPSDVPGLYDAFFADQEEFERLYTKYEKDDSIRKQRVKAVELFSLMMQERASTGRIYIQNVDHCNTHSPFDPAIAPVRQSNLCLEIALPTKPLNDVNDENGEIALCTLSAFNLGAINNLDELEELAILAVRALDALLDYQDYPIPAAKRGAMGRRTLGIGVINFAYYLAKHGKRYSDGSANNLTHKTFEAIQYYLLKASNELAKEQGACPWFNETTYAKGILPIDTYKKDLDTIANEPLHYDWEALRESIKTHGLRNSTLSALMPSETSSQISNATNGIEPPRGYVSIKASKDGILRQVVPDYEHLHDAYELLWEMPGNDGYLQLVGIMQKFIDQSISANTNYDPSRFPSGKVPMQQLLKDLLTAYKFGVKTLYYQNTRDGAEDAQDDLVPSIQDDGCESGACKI

RR [4] = biological target: T2, RR; assay: Biological Evaluation of Compound (8): RR activity; type: biochemical
Excerpt: as §1
All three methods yielded acceptable results, with the following limitations. Method 1 is useful for the assay of CDP to dCDP and ADP to dADP conversions, but is not useful for the assay of GDP reduction. It is also sensitive to large changes in the nucleotide composition of the assay medium. Thus, it is quite useful for standard assays (purifications, tests of peptide inhibition), but difficult to apply when concentrations and substrate are widely varied. […]

[5] = Table 8, Dixon plots of 4-6 concentration points, ranges are two independent determinations, read-out: IC50

CC(=O)N[C@@H](Cc1ccccc1)C(=O)NC[C@@H]1O[C@@H]([C@@H](C)C(=O)N[C@@H](CC(=O)O)C(=O)N[C@@H](Cc2ccccc2)C(=O)O)[C@@H](OCC(=O)O)C[C@H]1OCC(C)C [Compound 23]
Fold decrease in RI relative to N-AcFTLDADF ([1]; Table 8): three to four
Residual Relative Activity (RR [2]; 30 μM Compound 23): 86 ± 8 percentage
Residual Relative Activity (RR [2]; 100 μM Compound 23): 73 ± 6 percentage
Residual Relative Activity (RR [2]; 300 μM Compound 23): 64 ± 6 percentage
Residual Relative Activity (RR [2]; 500 μM Compound 23): 48 ± 4 percentage
Residual Relative Activity (RR [2]; 1000 μM Compound 23): 32 ± 6 percentage

Nc1ncnc2c1ncn2[C@H]1C[C@H](O)[C@@H](COP(=O)(O)OP(=O)(O)OP(=O)(O)O)O1 [dATP]
IC50 [3]: 20 µM

Ac-FALDADF [Ac-FALDADF, Acetyl-Phe-Ala-Leu-Asp-Ala-Asp-Phe]
IC50 [1, 5]: 35 to 40 µM

Ac-FLDADF [Ac-F-LDADF]
IC50 [1, 5]: 412 µM

Ac-FSLDADF [Ac-FSLDADF, Acetyl-Phe-Ser-Leu-Asp-Ala-Asp-Phe]
IC50 ([1]; Table 8, Dixon plots of 4-6 concentration points, ranges are two independent determinations): 40 to 42 µM

Ac-FTADADF [Ac-FTADADF]
% RI (relative inhibitory potency, (IC50 AcFTLDADF)/(IC50 peptide analog)) ([1]; Table 8): 4.9 ± 0.60%

Ac-FTFDADF [Ac-FTFDADF]
% RI (relative inhibitory potency, (IC50 AcFTLDADF)/(IC50 peptide analog)) ([1]; Table 8): 18 ± 4.2%

Ac-FTFNEDF [AcFTFNEDF]
IC50 ([1]; Table 9, read-out: IC50, Mammalian RR): 100 µM

Ac-FTLAADF [Ac-FTLAADF]
Fold decrease in RI relative to N-AcFTLDADF ([1]; Table 8): > 30 fold
% RI (relative inhibitory potency, (IC50 AcFTLDADF)/(IC50 peptide analog)) ([1]; Table 8): 2.9 ± 0.4%

Ac-FTLDADF [Ac-FTLDADF, Acetyl-Phe-Thr-Leu-Asp-Ala-Asp-Phe]
IC50 [1, 5]: 8 to 20 µM
IC50 (E. coli RR; E. coli R1 protein / RR): > 1000 µM
Inhibition of E. coli RR (E. coli RR): at best a very poor inhibitor of eRR; also recorded: failure to significantly inhibit E. coli RR up to concentrations of 1 mM
RR Activity (RR [4]; compound at 10 μM): 0.39 ± 0.07
RR Activity (RR [4]; compound at 66 μM): 0.12

Ac-FTLDADFAA
% RI (relative inhibitory potency, (IC50 AcFTLDADF)/(IC50 peptide analog)) ([1]; Table 8): 2.1%

Ac-FTLDADL [Ac-FTLDADL]
Fold decrease in RI relative to N-AcFTLDADF ([1]; Table 8): over 40 fold
% RI (relative inhibitory potency, (IC50 AcFTLDADF)/(IC50 peptide analog)) ([1]; Table 8): 3% and < 3%

Ac-FTLDAEF [Ac-FTLDAEF]
Fold decrease in RI relative to N-AcFTLDADF ([1]; Table 8): > 50 fold
% RI (relative inhibitory potency, (IC50 AcFTLDADF)/(IC50 peptide analog)) ([1]; Table 8): 1.7 ± 0.15%

Ac-FTLDANF [Ac-FTLDANF]
Fold decrease in RI relative to N-AcFTLDADF ([1]; Table 8): three to four
% RI (relative inhibitory potency, (IC50 AcFTLDADF)/(IC50 peptide analog)) ([1]; Table 8): 23 ± 1.0%
